The record followed here is the supplement of paper PMC4862054.

Common to all, as to details: incubation time: 72 h
One assay deals with BT-474. The assay is described as follows: drug sensitivity score (DSS), CellTiter-Blue viability (DSS (AUC-based score)); higher = stronger viability inhibition; extreme values may be limits of the assay. How it is done: (§1)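 DSRT with the CellTiter-Blue (resazurin reduction) viability readout, fluorescence 560/590 nm, 72 h incubation. Plates were normalised to DMSO and benzethonium chloride controls. DSS is computed from the area under the fitted dose-response curve (5 or 9 concentrations).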

For assay [1], the system named is MDA-MB-453. The description is as above. How it is done: as §1
Assay [2] relates to CAL-85-1. Described as above. How it is done:
as §1

Another assay deals with MDA-MB-468. Described as above. How it is done:
as §1

A further assay concerns MDA-MB-436. The description is as above. How it is done:
as §1

Assay [3] deals with CAL-148. Described as above. How it is done:
as §1

Assay [4] deals with DU-4475. The description is as above. How it is done:
as §1

Assay [5] relates to CAL-51. The assay is described as above. How it is done:
as §1

Another assay deals with SK-BR-3. The assay is described as above. How it is done: as §1
The next assay relates to HCC1599. The assay is described as above. How it is done: as §1
In a further assay the test system is MFM-223. Described as above. How it is done:
as §1

For the next assay, the system named is MDA-MB-231. Described as above. How it is done:
as §1

Another assay relates to CAL-120. The assay is described as above. How it is done:
as §1

A further assay has as its system HCC1143. Described as above. How it is done: as §1
A further assay relates to BT-549. The description is as above. How it is done: as §1
For a further assay, the system named is HCC1937. The description is as above. How it is done:
as §1

The test system of the next assay is Hs578T. Described as above. How it is done: as §1
Assay [6] relates to MDA-MB-453. The assay is described as follows: normalised viability (% of control), CellTiter-Blue; higher = more viable cells (about 100 = DMSO control). How it is done: (§2)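 DSRT, CellTiter-Blue viability, 72 h incubation. Signal is normalised to DMSO and benzethonium chloride controls. Value is the normalised response at dose 7.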
In general terms: Resazurin is reduced to fluorescent resorufin, in cell work by metabolically active cells.

The subject of assay [7] is CAL-85-1. Described as above. How it is done: as §2
Assay [8] concerns CAL-148. The description is as above. How it is done: as §2
The subject of assay [9] is DU-4475. The description is as above. How it is done: as §2
Assay [10] has as its system CAL-51. The description is as above. How it is done:
as §2

Another assay relates to HDQ-P1. The description is as above. How it is done:
as §2

For `OC[C@H]1O[C@@H](n2cnc3c2N=CNC[C@H]3O)C[C@@H]1O` [Pentostatin], the drug sensitivity score in the assay with BT-474, with MDA-MB-453 [1], with CAL-85-1 [2], in the assay with MDA-MB-468, with MDA-MB-436 and in the assay on CAL-148 [3] was 0 each time. For the same molecule, the drug sensitivity score in the assay on DU-4475 [4], in the assay with CAL-51 [5], in the assay with SK-BR-3, in the assay with HCC1599, in the assay on MFM-223 and in the assay with MDA-MB-231 was 0 in each case. Besides, the drug sensitivity score in the assay on CAL-120, with HCC1143, in the assay with BT-549, with HCC1937 and in the assay on Hs578T was 0 in each case.

With `OC[C@H]1O[C@@H](n2cnc3c2N=CNC[C@H]3O)C[C@@H]1O` [Pentostatin] (1000 nM), the normalised viability in the assay with MDA-MB-453 [6] stood at 98.2%; in the assay on CAL-85-1 [7], 108%; in the assay with CAL-148 [8], 123%; in the assay on DU-4475 [9] it was 102%; in the assay on CAL-51 [10] it was 89.9%; in the assay with HDQ-P1, 85.4%.

Regarding `N#CC[C@H](C1CCCC1)n1cc(-c2ncnc3[nH]ccc23)cn1` [Ruxolitinib] (1000 nM), the normalised viability with MDA-MB-453 [6] worked out at 92.4%; with CAL-85-1 [7], 110%; in the assay on CAL-148 [8], 101%; with DU-4475 [9], 112%; with CAL-51 [10], 90%; in the assay with HDQ-P1, 91.1%.

With `C=CC[C@@H]1/C=C(\C)C[C@H](C)C[C@H](OC)[C@H]2O[C@@](O)(C(=O)C(=O)N3CCCC[C@H]3C(=O)O[C@H](/C(C)=C/[C@@H]3CC[C@@H](O)[C@H](OC)C3)[C@H](C)[C@@H](O)CC1=O)[C@H](C)C[C@@H]2OC` [Tacrolimus], the drug sensitivity score in the assay with BT-474, in the assay on MDA-MB-453 [1], in the assay with CAL-85-1 [2], in the assay on MDA-MB-468, in the assay on MDA-MB-436 and in the assay on CAL-148 [3] was 0 each time. In addition, the drug sensitivity score with DU-4475 [4], in the assay with CAL-51 [5], in the assay with SK-BR-3, in the assay on HCC1599, in the assay on MFM-223 and with MDA-MB-231 was 0 each time. For the same molecule, the drug sensitivity score in the assay with CAL-120, in the assay on HCC1143, in the assay with BT-549, with HCC1937 and in the assay on Hs578T was 0 throughout.

With `C=CC[C@@H]1/C=C(\C)C[C@H](C)C[C@H](OC)[C@H]2O[C@@](O)(C(=O)C(=O)N3CCCC[C@H]3C(=O)O[C@H](/C(C)=C/[C@@H]3CC[C@@H](O)[C@H](OC)C3)[C@H](C)[C@@H](O)CC1=O)[C@H](C)C[C@@H]2OC` [Tacrolimus] (1000 nM), the normalised viability worked out at 108% with MDA-MB-453 [6]; 95.4% with CAL-85-1 [7]; 103% in the assay with CAL-148 [8]; 115% in the assay on DU-4475 [9]; 96.6% in the assay on CAL-51 [10]; 111% in the assay with HDQ-P1.

In the case of `C=CCNC1=C2C[C@@H](C)C[C@H](OC)[C@H](O)[C@@H](C)/C=C(\C)[C@H](OC(N)=O)[C@@H](OC)/C=C\C=C(/C)C(=O)NC(=CC1=O)C2=O` [Tanespimycin] (1000 nM), the normalised viability was found to be 7.14% in the assay on MDA-MB-453 [6]; 24.7% in the assay on CAL-85-1 [7]; 20.8% in the assay on CAL-148 [8]; 0.99% in the assay with DU-4475 [9]; 24.2% in the assay on CAL-51 [10]; 22.9% with HDQ-P1.

For `CO[C@H]1C[C@@H]2CC[C@@H](C)[C@@](O)(O2)C(=O)C(=O)N2CCCC[C@H]2C(=O)O[C@H]([C@H](C)C[C@@H]2CC[C@@H](OC(=O)C(C)(CO)CO)[C@H](OC)C2)CC(=O)[C@H](C)/C=C(\C)[C@@H](O)[C@@H](OC)C(=O)[C@H](C)C[C@H](C)/C=C/C=C/C=C/1C` [Temsirolimus] (100 nM), the normalised viability was determined as 24.9% in the assay on MDA-MB-453 [6]; 53.2% with CAL-85-1 [7]; 37% in the assay with CAL-148 [8]; 50.6% in the assay on DU-4475 [9]; 37.9% with CAL-51 [10]; 71.8% with HDQ-P1.

Consider `C[C@]1(c2nc3c(C(N)=O)cccc3[nH]2)CCCN1` [Veliparib], for which the drug sensitivity score in the assay on BT-474, in the assay on MDA-MB-453 [1], in the assay with CAL-85-1 [2], in the assay on MDA-MB-468, in the assay on MDA-MB-436 and in the assay on CAL-148 [3] was 0 each time. Also, the drug sensitivity score in the assay on DU-4475 [4], in the assay on CAL-51 [5], with SK-BR-3, with HCC1599, in the assay with MFM-223 and in the assay on MDA-MB-231 was 0 in each case. Further, the drug sensitivity score in the assay on CAL-120, with HCC1143, in the assay on BT-549, in the assay with HCC1937 and in the assay on Hs578T was 0 in each case.

Consider `C[C@]1(c2nc3c(C(N)=O)cccc3[nH]2)CCCN1` [Veliparib] (1000 nM), for which the normalised viability turned out to be 84.4% in the assay with MDA-MB-453 [6]; 73.3% in the assay on CAL-85-1 [7]; 106% with CAL-148 [8]; 82.1% in the assay on DU-4475 [9]; 107% in the assay on CAL-51 [10]; 97.1% with HDQ-P1.

For `CC[C@]1(O)C[C@@H]2CN(CCc3c([nH]c4ccccc34)[C@@](C(=O)OC)(c3cc4c(cc3OC)N(C)[C@H]3[C@@](O)(C(=O)OC)[C@H](OC(C)=O)[C@]5(CC)C=CCN6CC[C@]43[C@@H]65)C2)C1` [Vinblastine] (100 nM), the normalised viability came out at 23.8% in the assay on MDA-MB-453 [6]; 30.2% in the assay with CAL-85-1 [7]; 20.1% in the assay on CAL-148 [8]; 34.8% in the assay with DU-4475 [9]; 23.3% with CAL-51 [10]; 37.6% with HDQ-P1.

As for `CS(=O)(=O)c1ccc(C(=O)Nc2ccc(Cl)c(-c3ccccn3)c2)c(Cl)c1` [Vismodegib] (1000 nM), the normalised viability worked out at 98.3% in the assay on MDA-MB-453 [6]; 97.1% with CAL-85-1 [7]; 98.3% in the assay on CAL-148 [8]; 114% in the assay with DU-4475 [9]; 99.1% in the assay on CAL-51 [10]; 92.4% in the assay with HDQ-P1.
